Here are results for 1 compound from PMC10080691, “Enzyme-Responsive Double-Locked Photodynamic Molecular Beacon for Targeted Photodynamic Anticancer Therapy” (Journal of the American Chemical Society, 2023).

The subject of this assay is HeLa cells. The assay can be described thus: Intracellular ROS generation (H2DCFDA). Conditions: no inhibitor pretreatment, 2 μM 1 h + 6 h, light λ > 610 nm, 23 mW cm-2, 14 J cm-2. In kind it is cell-based, human. As to the method: The enzyme-responsive intracellular ROS generation of 1 was then examined in A549 and HeLa cells using 2′,7′-dichlorodihydrofluorescein diacetate (H2DCFDA) as the ROS fluorescent probe. Once H2DCFDA is internalized, it will be deacetylated by the intracellular esterase, followed by oxidation by the intracellular ROS, leading to the formation of the highly fluorescent 2′,7′-dichlorofluorescein (DCF).[79] The cells were first pretreated with SB-3CT (10 μM) and/or CA-074 Me (25 μM) or simply the neat medium for 2 h, followed by incubation with 1 (2 μM) for a further 1 h. As a negative control, the cells were simply incubated with 14 (2 μM) for 1 h. After being rinsed with PBS, the cells were incubated in the medium for a further 6 h. Finally, the cells were incubated with H2DCFDA (10 μM) for 30 min, followed by dark or light (λ > 610 nm, 23 mW cm^–2, 14 J cm^–2) treatment. […] It can be seen that for the MMP-2-positive A549 cells, the fluorescence due to DCF was in the following order: 1 without pretreatment of the cells with the two inhibitors > 1 with pretreatment of the cells with either one of the two inhibitors > 1 with pretreatment of the cells with both inhibitors ≈ 14. […] This trend, which reflects the extent of recovery of ROS generation, was in accord with that of the fluorescence recovery inside the cells (Figure 5c,d). For the MMP-2-negative HeLa cells, the intracellular fluorescence remained very weak even for 1 without pretreatment of the cells with the two inhibitors because of the intrinsically low MMP levels in the cells. […]
or ER-Tracker Green (Thermo Fisher Scientific Inc., E34251) (1 μM for 15 min) in a serum-free medium at 37 °C. […] All the trackers were excited at 488 nm and their fluorescence was monitored at 500−570 nm, while the DSBDP moiety was excited at 638 nm and its fluorescence was monitored at 650−750nm. The images were digitized and analyzed using a Leica Application Suite X software. […]
at 500−550 nm. The images were digitized and analyzed using a Leica Application Suite X […]

Each structure is given as a SMILES string.

Take `CCN(CC)c1ccc2nc3ccc(/N=N/c4ccc(N(C)CCCNC(=O)OC[C@@H]5[C@@H]6CCc7nnn(CC(=O)NCCCC[C@@H]8NC(=O)CNC(=O)[C@H](CCCCN)NC(=O)[C@H](CCCNC(=N)N)NC(=O)[C@H](C(C)C)NC(=O)CNC(=O)[C@H](CC(C)C)NC(=O)[C@@H]9CCCN9C(=O)[C@H](CCCCN)NC(=O)[C@@H](N)CSCc9cc(COc%10ccc(C%11=C%12C(C)=C(I)C(/C=C/c%13ccc(OCCOCCOCCOC)cc%13)=[N+]%12[B-](F)(F)n%12c(/C=C/c%13ccc(OCCOCCOCCOC)cc%13)c(I)c(C)c%12%11)cc%10)cc(c9)CSC[C@@H](C(N)=O)NC(=O)[C@H](CCCCN)NC(=O)[C@H](CCCCN)NC(=O)CNC(=O)[C@H](CC(C)C)NC(=O)[C@H](Cc9ccccc9)NC(=O)CNC(=O)[C@H](CCCCN)NC(=O)CNC8=O)c7CC[C@@H]65)cc4)cc3[n+](-c3ccccc3)c2c1` [compound 1]: the “intracellular ROS generation (DCF fluorescence)” value is “very weak”.
